Experimental findings from PMC10941186, “Real-Time Biosynthetic Reaction Monitoring Informs the Mechanism of Action of Antibiotics” (Journal of the American Chemical Society, 2024) are described below.

Structures are written as SMILES.

What all share (format): biochemical
One test deals with T1, UppP (Escherichia coli, UniProt P60932).
T1 construct: expressed and purified from E. coli membranes, LDAO micelles, delipidated for activity
T1 sequence (P60932 1-273): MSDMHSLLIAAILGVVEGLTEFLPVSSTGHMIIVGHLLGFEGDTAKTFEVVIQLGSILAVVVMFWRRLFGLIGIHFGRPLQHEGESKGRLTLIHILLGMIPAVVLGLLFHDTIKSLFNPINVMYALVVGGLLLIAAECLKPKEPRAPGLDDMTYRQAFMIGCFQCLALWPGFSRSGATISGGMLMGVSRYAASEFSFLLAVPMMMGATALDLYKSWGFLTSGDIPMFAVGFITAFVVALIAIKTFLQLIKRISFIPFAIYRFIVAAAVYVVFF
Nature of the test: native mass spectrometry, real-time reaction monitoring.

For the next test, the target named is T2, YbjG (Escherichia coli, UniProt P75806).
T2 construct: construct details only in supplement
T2 sequence (P75806 1-198): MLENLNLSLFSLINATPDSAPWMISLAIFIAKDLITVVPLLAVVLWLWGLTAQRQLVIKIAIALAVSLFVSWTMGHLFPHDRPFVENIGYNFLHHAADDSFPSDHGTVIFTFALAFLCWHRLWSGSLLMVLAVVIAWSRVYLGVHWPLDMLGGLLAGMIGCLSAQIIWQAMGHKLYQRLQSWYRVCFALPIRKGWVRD
As to the kind of experiment: thin-layer chromatography phosphatase assay. The settings on record: unaffected by EDTA or CaCl2.

The target of another test is T3, PgpB^Ec (Escherichia coli, UniProt P0A924).
T3 construct: expressed and purified from E. coli membranes, LDAO micelles; monomer; tag details not given (PgpB-his plasmid used in cells)
T3 sequence (P0A924 2-254): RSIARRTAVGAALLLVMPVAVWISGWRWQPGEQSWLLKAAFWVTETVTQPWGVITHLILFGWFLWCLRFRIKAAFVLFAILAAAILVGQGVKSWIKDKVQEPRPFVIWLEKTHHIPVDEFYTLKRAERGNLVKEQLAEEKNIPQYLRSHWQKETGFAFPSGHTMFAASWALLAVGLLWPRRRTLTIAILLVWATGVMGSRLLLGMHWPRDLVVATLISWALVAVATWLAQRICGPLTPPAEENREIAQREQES
As to the kind of experiment: native mass spectrometry, real-time reaction monitoring.

A further test addresses T4, PgpB^Bs (Bacillus subtilis, UniProt O34349).
T4 construct: expressed in E. coli, purified, LDAO micelles; monomer; tag details not given
T4 sequence (O34349 1-203): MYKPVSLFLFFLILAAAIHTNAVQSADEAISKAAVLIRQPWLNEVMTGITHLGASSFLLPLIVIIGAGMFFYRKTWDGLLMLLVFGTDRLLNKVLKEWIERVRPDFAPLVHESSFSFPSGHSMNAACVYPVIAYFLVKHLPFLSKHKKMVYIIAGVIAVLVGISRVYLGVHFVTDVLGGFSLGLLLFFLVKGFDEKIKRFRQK
Described as above.

The mark [1] stands for this setting: within 1 min, only enzyme-product complexes seen.

In the case of `CC(C)=CCC/C(C)=C/CC/C(C)=C/COP(=O)(O)OP(=O)(O)O` [C15-PP], the “native mass spectrometry, real-time reaction monitoring” value (from here on “native mass spectrometry”) on UppP (3.5 uM delipidated protein, 50 uM C15-PP) is “peaks corresponding to ligand-free UppP and multiple enzyme–substrate complexes (UppP)(C15-PP)n”.
On to `CC(C)=CCC/C(C)=C/CC/C(C)=C/CC/C(C)=C/CC/C(C)=C/CC/C(C)=C/CC/C(C)=C/CC/C(C)=C/CC/C(C)=C/CC/C(C)=C/CC/C(C)=C/COP(=O)(O)OP(=O)(O)O` [C55-PP], for which, at YbjG, the “thin-layer chromatography phosphatase assay” value is reported as “the activity of YbjG against C55-PP is unaffected by EDTA or CaCl2”. Also, the “native mass spectrometry” value was “we observe intense binding of C55-PP molecules to the enzyme” on PgpB^Ec (3.5 uM protein, 10 uM C55-PP, slowly processed); “We next examined the activity of PgpB of B. subtilis (PgpB^Bs) toward DGPP and C55-PP” on PgpB^Bs (setting [1]).
As for `CC(C)=CCC/C(C)=C/CC/C(C)=C/CC/C(C)=C\CC/C(C)=C\CC/C(C)=C\CC/C(C)=C\CC/C(C)=C\CC/C(C)=C\CC/C(C)=C\CC/C(C)=C\COP(=O)(O)O` [C55-P], on UppP (product formed in situ from C55-PP), the “native mass spectrometry” value is listed as “only the C55-P product was observed in complex with the protein”.
In the case of `CCCCCCCC/C=C\CCCCCCCC(=O)OC[C@H](COP(=O)(O)O)OC(=O)CCCCCCC/C=C\CCCCCCCC` [DGP, 1,2-dioleoylglycerol monophosphate], the “native mass spectrometry” value at PgpB^Ec (product formed in situ from DGPP, ternary complex with DGPP) is “ternary complex formed by PgpB^Ec with the substrate DGPP and the monophosphorylated product DGP”.
Turning to `CCCCCCCC/C=C\CCCCCCCC(=O)OC[C@H](COP(=O)(O)OP(=O)(O)O)OC(=O)CCCCCCC/C=C\CCCCCCCC` [DGPP, 1,2-dioleoylglycerol diphosphate], the “native mass spectrometry” value is “The resultant spectra are dominated by peaks assigned to the bound substrate” at UppP (poorly processed substrate); “DGPP incubated with PgpB^Ec exhibited intense peaks corresponding to the enzyme–substrate and enzyme–product complexes” on PgpB^Ec (3.5 uM protein, 10 uM DGPP, stoichiometries 1:1 to 1:4, activity independent of divalent cations); “peaks assigned to enzyme–product complexes with no residual substrate” at PgpB^Bs (setting [1]).
Regarding `CCCCCCCC/C=C\CCCCCCCC(=O)OC[C@@H](O)COP(=O)(O)O` [LPA], the “native mass spectrometry” value at PgpB^Bs (3.5 uM protein with 50 uM LPA, 5 uM with 20 uM (Figure 2C)) is recorded as “The resulting spectra exhibited a progressive loss of protein-bound LPA as a function of time”.
